“And” between values parts separate entries of the source, which are not always exact repeats. Equal values may be shown once. Results filed as inconclusive are left out.

For the assay, the system named is nude mice, HT29 intrarenal xenograft, tumor weight T/C. The experiment in a line: NCI In Vivo Anticancer Drug Screen. Data for tumor model HT29;CX-1 Human Adenocarcinoma (MER+) (intrarenal inoculation) in NU/NU Swiss (nude) mice. To be noted: endpoint: mean tumor weight change, higher = larger tumour. The procedure, abridged: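 Mice with transplanted tumors are dosed with compound while controls get vehicle only. Survival or tumor burden is then assessed per group, and the treated value is expressed relative to control.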

[1] abbreviates: dose: 300.0 mg/kg/injection, schedule: Q04DX004 (sc), vehicle: Klucel (hydroxypropylcellulose) (HPC).
Where [2] appears, read: dose: 600.0 mg/kg/injection, schedule: Q04DX004 (sc), vehicle: Klucel (hydroxypropylcellulose) (HPC).
The mark [3] stands for this setting: dose: 1200.0 mg/kg/injection, schedule: Q04DX004 (sc), vehicle: Klucel (hydroxypropylcellulose) (HPC).
[4] abbreviates: dose: 200.0 mg/kg/injection, schedule: Q01DX010 (sc), vehicle: saline with Tween-80.
The mark [5] stands for this setting: dose: 150.0 mg/kg/injection, schedule: Q04DX004 (sc), vehicle: Klucel (hydroxypropylcellulose) (HPC).
Setting [6] is: dose: 50.0 mg/kg/injection, schedule: Q01DX010 (sc), vehicle: saline.
Where [7] appears, read: dose: 100.0 mg/kg/injection, schedule: Q01DX010 (sc), vehicle: saline.
[8] abbreviates: dose: 12.5 mg/kg/injection, schedule: Q01DX010 (sc), vehicle: saline.
Where [9] appears, read: dose: 50.0 mg/kg/injection, schedule: Q04DX004 (sc), vehicle: saline with Tween-80.
Where [10] appears, read: dose: 200.0 mg/kg/injection, schedule: Q04DX004 (sc), vehicle: saline with Tween-80.

Turning to `C[Si](C)(C)OSc1ccccc1[N+](=O)[O-]`, the T/C was 79 % of control under setting [1]; 61 % of control under setting [2]; 107 % of control under setting [3]; 93 % of control (dose: 2400.0 mg/kg/injection, schedule: Q04DX004 (sc), vehicle: Klucel (hydroxypropylcellulose) (HPC)).
`O=C(N/N=C\c1cc(Br)cc(Br)c1O)N/N=C/c1cc(Br)cc(Br)c1O`: the T/C reads like this: under setting [4], 71 % of control and 94 % of control; (dose: 400.0 mg/kg/injection, schedule: Q01DX010 (sc), vehicle: saline with Tween-80) 43 % of control and 56 % of control; (dose: 800.0 mg/kg/injection, schedule: Q01DX010 (sc), vehicle: saline with Tween-80) 76 % of control.
With `O=NN(CCCl)C(=O)Oc1ccc(OC(=O)N(CCCl)N=O)cc1`, the T/C (dose: 37.5 mg/kg/injection, schedule: Q04DX004 (sc), vehicle: Klucel (hydroxypropylcellulose) (HPC)) is 44 % of control; the T/C (dose: 75.0 mg/kg/injection, schedule: Q04DX004 (sc), vehicle: Klucel (hydroxypropylcellulose) (HPC)) is 67 % of control; the T/C under setting [5] is 29 % of control; the T/C under setting [1] was 23 % of control.
For `Cc1ccccc1SSc1ccccc1C`, the T/C reads like this: (dose: 100.0 mg/kg/injection, schedule: Q01DX010 (sc), vehicle: saline with Tween-80) 62 % of control; under setting [4], 68 % of control.
For `O=C(O)CC(=O)O.[NH-]C1CCCCC1[NH-].[Pt+2]` (stereo unspecified), the T/C was 264 % of control (dose: 10.0 mg/kg/injection, schedule: Q01DX010 (sc), vehicle: dextrose); 73 % of control (dose: 15.0 mg/kg/injection, schedule: Q01DX010 (sc), vehicle: dextrose); 32 % of control and 43 % of control (dose: 30.0 mg/kg/injection, schedule: Q01DX010 (sc), vehicle: dextrose); 21 % of control (dose: 40.0 mg/kg/injection, schedule: Q01DX010 (sc), vehicle: dextrose); 34 % of control and 44 % of control (dose: 60.0 mg/kg/injection, schedule: Q01DX010 (sc), vehicle: dextrose); 51 % of control (dose: 120.0 mg/kg/injection, schedule: Q01DX010 (sc), vehicle: dextrose).
In the case of `CC(=O)O[C@H]1C(=O)[C@@]2(C)[C@H]([C@H](OC(=O)c3ccccc3)[C@]3(O)C[C@H](OC(=O)[C@H](O)[C@@H](NC(=O)c4ccccc4)c4ccccc4)C(C)=C1C3(C)C)[C@]1(OC(C)=O)CO[C@@H]1C[C@@H]2O`, the T/C (dose: 400.0 mg/kg/injection, schedule: Q01DX010 (sc), vehicle: Klucel (hydroxypropylcellulose) (HPC)) is 3 % of control and 12 % of control and 16 % of control.
With `Cc1cc(=NO)cc(C)n1O`, the T/C (dose: 150.0 mg/kg/injection, schedule: Q04DX004 (sc), vehicle: distilled water + alcohol) was 73 % of control; the T/C (dose: 300.0 mg/kg/injection, schedule: Q04DX004 (sc), vehicle: distilled water + alcohol) is 80 % of control; the T/C (dose: 600.0 mg/kg/injection, schedule: Q04DX004 (sc), vehicle: distilled water + alcohol) is 87 % of control; the T/C (dose: 1200.0 mg/kg/injection, schedule: Q04DX004 (sc), vehicle: distilled water + alcohol) was 65 % of control.
For the molecule `CCCCCC[C@H]([C@H](C)O)n1cnc2c(N)ncnc21`, the T/C is 26 % of control under setting [6]; 61 % of control under setting [7]; 56 % of control (dose: 200.0 mg/kg/injection, schedule: Q01DX010 (sc), vehicle: saline).
As to `CCCCNC(C)[C@]1(O)Cc2c(O)c3c(c(O)c2[C@@H](OC2CC(N)C(O)C(C)O2)C1)C(=O)c1c(OC)cccc1C3=O` (stereo partly specified), the T/C was 179 % of control (dose: 3.12 mg/kg/injection, schedule: Q01DX010 (sc), vehicle: saline); 103 % of control under setting [8]; 94 % of control (dose: 25.0 mg/kg/injection, schedule: Q01DX010 (sc), vehicle: saline).
In the case of `COc1cc([C@@H]2c3cc4c(cc3[C@@H](OC3OC5COC(C)OC5C(O)C3O)[C@H]3COC(=O)[C@H]23)OCO4)cc(OC)c1O` (stereo partly specified), the T/C is 71 % of control (dose: 4.0 mg/kg/injection, schedule: Q01DX010 (sc), vehicle: saline) and 62 % of control (dose: 32.0 mg/kg/injection, schedule: Q01DX010 (sc), vehicle: saline).
On to `CC(=O)N(C)c1ccc(Nc2cc(C)[nH]c3ccc4ncnc4c23)cc1`, for which the T/C under setting [9] was 95 % of control; the T/C (dose: 100.0 mg/kg/injection, schedule: Q04DX004 (sc), vehicle: saline with Tween-80) was 68 % of control; the T/C under setting [10] was 79 % of control.
For `C[CH2][Sn]([CH2]C)([CH2]C(=O)OC)[CH2]C(=O)OC`, the T/C was 79 % of control (dose: 12.5 mg/kg/injection, schedule: Q04DX004 (sc), vehicle: saline with Tween-80); 83 % of control (dose: 25.0 mg/kg/injection, schedule: Q04DX004 (sc), vehicle: saline with Tween-80); 79 % of control under setting [9].
With `CC1(C)N=C(N)N=C(N)N1c1ccc(CCCCc2ccc(S(=O)(=O)F)cc2Cl)c(Cl)c1`, the T/C under setting [8] was 84 % of control and 100 % of control; the T/C under setting [6] was 98 % of control; the T/C under setting [7] is 81 % of control.
On to `CCOC(=O)C1=C(C#N)C2(CCC(OCc3ccccc3)CC2)C(=O)O1` (stereo unspecified), for which the T/C was 91 % of control (dose: 100.0 mg/kg/injection, schedule: Q04DX004 (sc), vehicle: suspension in saline) and 110 % of control (dose: 800.0 mg/kg/injection, schedule: Q04DX004 (sc), vehicle: suspension in saline).
For `ClCc1ccc2ccccc2n1`, the T/C is, setting by setting: (dose: 75.0 mg/kg/injection, schedule: Q04DX004 (sc), vehicle: saline with Tween-80) 82 % of control; (dose: 150.0 mg/kg/injection, schedule: Q04DX004 (sc), vehicle: saline with Tween-80) 88 % of control; (dose: 300.0 mg/kg/injection, schedule: Q04DX004 (sc), vehicle: saline with Tween-80) 86 % of control; (dose: 600.0 mg/kg/injection, schedule: Q04DX004 (sc), vehicle: saline with Tween-80) 53 % of control.
Regarding `CC[C@](O)(C(=O)O)c1cc2n(c(=O)c1CO)Cc1cc3ccccc3nc1-2`, the T/C was 7 % of control (dose: 31.25 mg/kg/injection, schedule: Q04DX004 (sc), vehicle: saline); -10 % of control (dose: 62.5 mg/kg/injection, schedule: Q04DX004 (sc), vehicle: saline); -46 % of control (dose: 125.0 mg/kg/injection, schedule: Q04DX004 (sc), vehicle: saline).
In the case of `CC(Oc1ccccc1-c1ccccc1)C(=O)N(C)C` (stereo unspecified), the T/C under setting [10] is 115 % of control; the T/C (dose: 400.0 mg/kg/injection, schedule: Q04DX004 (sc), vehicle: saline with Tween-80) was 63 % of control; the T/C (dose: 800.0 mg/kg/injection, schedule: Q04DX004 (sc), vehicle: saline with Tween-80) is 89 % of control; the T/C (dose: 1600.0 mg/kg/injection, schedule: Q04DX004 (sc), vehicle: saline with Tween-80) is 55 % of control.
As for `CC(CN1CC(=O)NC(=O)C1)N1CC(=O)NC(=O)C1` (stereo unspecified), the T/C is, setting by setting: under setting [5], 85 % of control; under setting [1], 40 % of control; under setting [2], 46 % of control.
Take `NC(=O)/C=C/C(=O)c1c(Cl)cccc1Cl`: the T/C (dose: 36.0 mg/kg/injection, schedule: Q04DX004 (sc), vehicle: saline with Tween-80) was 52 % of control.
As for `[O-][n+]1c(CN2CCCCC2)nc2cccc3c2c1-c1ccccc1-3`, the T/C is, setting by setting: under setting [5], 274 % of control; under setting [1], 150 % of control; under setting [2], 239 % of control; under setting [3], 303 % of control.
On to `COC1CC(CC2CCC(C)C(C(C)C(=O)O)O2)OC2(OC(C)(C3CCC(C)(C4OC(C5OC(O)(CO)C(C)CC5C)CC4C)O3)CC2C)C1C` (stereo unspecified), for which the T/C is, setting by setting: (dose: 3.75 mg/kg/injection, schedule: Q04DX004 (sc), vehicle: Klucel (hydroxypropylcellulose) (HPC)) 34 % of control; (dose: 7.5 mg/kg/injection, schedule: Q04DX004 (sc), vehicle: Klucel (hydroxypropylcellulose) (HPC)) 107 % of control.
On to `NC(N)=NOCC[C@@H](N)C(=O)O`, for which the T/C runs as follows: (dose: 150.0 mg/kg/injection, schedule: Q04DX004 (sc), vehicle: saline) 108 % of control; (dose: 300.0 mg/kg/injection, schedule: Q04DX004 (sc), vehicle: saline) 75 % of control; (dose: 600.0 mg/kg/injection, schedule: Q04DX004 (sc), vehicle: saline) 76 % of control; (dose: 1200.0 mg/kg/injection, schedule: Q04DX004 (sc), vehicle: saline) 62 % of control.
As for `CCCNC1=C(C)C(=O)C2=C(C1=O)[C@H](COC(N)=O)[C@]1(OC)[C@@H]3N[C@@H]3CN21`, the T/C reads like this: (dose: 6.0 mg/kg/injection, schedule: Q04DX003 (sc), vehicle: saline) 78 % of control; (dose: 12.0 mg/kg/injection, schedule: Q04DX003 (sc), vehicle: saline) 1 % of control.
On to `COC1C(CO)OC(n2cnc3c(=S)nc(N)[nH]c32)C1O` (stereo unspecified), for which the T/C under setting [5] was 116 % of control.

The values are drawn from PubChem BioAssay AID206 (DTP/NCI, 2004).
